Measured values taken from publication PMC6262321, “New Pim-1 Kinase Inhibitor From the Co-culture of Two Sponge-Associated Actinomycetes” (Frontiers in Chemistry, 2018).
Where two headings read alike, the source gives them in different places.

How the values were obtained:
[1] = tested on: human promyelocytic leukemia HL-60; assay: MTT antiproliferative assay, HL-60; type: cell-based; details: mean of 3 independent experiments, read-out: Antiproliferative activity IC50 ± S.D., HL-60 (head prints HL-6)
[2] = tested on: lung adenocarcinoma H1650; assay: MTT antiproliferative assay, H1650; type: cell-based; details: mean of 3 independent experiments, read-out: Antiproliferative activity IC50 ± S.D., H1650
Description: Cell proliferation was evaluated in cell lines by the MTT assay in triplicates. 10^4 cells were plated in a 96-well microtiter plate in a final volume of 100 μl of culture medium. Cells were treated for 24 h with test compound at 37 °C with 5% CO2. After treatment, the cells were immediately incubated with 10 μl MTT (5.0 mg/mL) for 4 h at 37°C. The cells were then lysed in 100 μl of lysis buffer (isopropanol, conc. HCl and Triton X-100) for 10 min at room temperature and 300 rpm/min shaking. The enzymatic reduction of MTT to formazan crystals that dissolved in DMSO was quantified by photometry at 570 nm. […] 5-Flurouracil was used as a positive control.

[3] = tested on: human colon adenocarcinoma HT-29; assay: MTT antiproliferative assay, HT-29; type: cell-based; details: mean of 3 independent experiments, read-out: Antiproliferative activity IC50 ± S.D., HT-29
[4] = molecular target: T1, Pim-1 kinase (Homo sapiens, UniProt P11309); assay: Pim-1 kinase assay (HTScan Kinase Assay); type: biochemical
T1 construct: purchased Cell Signaling Technology
T1 sequence (P11309 whole entry): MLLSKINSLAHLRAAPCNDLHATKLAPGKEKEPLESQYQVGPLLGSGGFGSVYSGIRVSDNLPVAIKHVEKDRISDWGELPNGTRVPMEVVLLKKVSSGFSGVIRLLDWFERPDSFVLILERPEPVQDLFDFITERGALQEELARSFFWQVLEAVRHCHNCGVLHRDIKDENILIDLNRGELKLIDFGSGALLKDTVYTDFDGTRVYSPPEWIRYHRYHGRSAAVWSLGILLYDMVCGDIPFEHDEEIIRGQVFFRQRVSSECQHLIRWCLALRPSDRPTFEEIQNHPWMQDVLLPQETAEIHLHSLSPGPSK

[5] = tested on: Pim-1; set-up: method as in Nakano et al., 2012; details: ligand of PDB code 3umw; ref Nakano et al., 2012; read-out: Pim-1 IC50 of co-crystalized ligand; cited from earlier work
[6] = Homo sapiens, NCI-H1650, 24 h treatment
[7] = Homo sapiens, HL-60, 24 h treatment
[8] = Homo sapiens, HT-29, 24 h treatment
[9] = 50 ng Pim-1, 200 μM ATP, 1.5 μM biotinylated BAD Ser112 peptide, 30 min, mean of 3 independent experiments, read-out: In-vitro Pim-1 kinase inhibitory activity IC50 ± S.D.

Row | SMILES | IC50 ([1]; 24 h treatment) | IC50 ([2]; 24 h treatment) | IC50 ([3]; 24 h treatment) | IC50 [2, 6] | IC50 [1, 7] | IC50 [3, 8] | IC50 [4, 9] | IC50 [4] | IC50 [5]
1 | O=c1[nH]cc(F)c(=O)[nH]1 [5-Flurouracil, reference compound] | 0.2 ± 0.43 µM | 0.5 ± 0.67 µM | 0.3 ± 0.35 µM |  |  |  |  |  | 
2 | COc1ccc(/C=C/C(=N)/C=C2/C(=O)Nc3cc(Br)ccc32)cc1 [Compound 1, (E)-6-bromo-3-((E)-2-imino-4-(4-methoxyphenyl)but-3-en-1-ylidene)indolin-2-one] |  |  |  | > 100 µM |  |  |  |  | 
3 | CC(=O)C[C@@]1(O)C(=O)Nc2cc(Br)ccc21 [Compound 2, (S) enantiomer of (R)-6-Bromo-3-hydroxy-3-(2 oxopropyl)indolin-2-one] |  |  |  | > 100 µM | > 100 µM | > 100 µM | > 20 µM |  | 
4 | O=C1Nc2cc(Br)ccc2[C@@]1(O)c1c[nH]c2ccccc12 [Compound 3, (S) 6-bromo-3-hydroxy-3-(1H-indol-3-yl) indolin-2-one] |  |  |  | > 100 µM |  |  |  |  | 
5 | C[C@@H]1C[C@H]2CC[C@H](O2)[C@H](C)C(=O)O[C@@H](C)C[C@@H]2CC[C@@H](O2)[C@@H](C)C(=O)O[C@H](C)C[C@H]2CC[C@H](O2)[C@H](C)C(=O)O[C@@H](C)C[C@@H]2CC[C@@H](O2)[C@@H](C)C(=O)O1 [Compound 4, Nonactin] |  |  |  | > 100 µM | > 100 µM | > 100 µM |  | > 20 µM | 
6 | CC(c1c[nH]c2ccccc12)c1c[nH]c2ccccc12 [Compound 5, vibrindole] |  |  |  | > 100 µM | > 100 µM | > 100 µM | > 20 µM |  | 
7 | O=C(O)c1cc(O)c2ccccc2c1O [Compound 11, 1,4 dihydroxy-2-naphthoic acid] |  |  |  | > 100 µM | > 100 µM | > 100 µM | > 20 µM |  | 
8 | COc1ccc2c(c1CN1CCNCC1)OC(=Cc1n[nH]c3ccccc13)C2=O [co-crystalized ligand] |  |  |  |  |  |  |  |  | 0.003 µM

Second part, led by results:

Row | IC50 ([1]; 24 h treatment) | IC50 ([2]; 24 h treatment) | IC50 ([3]; 24 h treatment) | IC50 [2, 6] | IC50 [1, 7] | IC50 [3, 8] | IC50 [4, 9] | SMILES | IC50 [4] | IC50 [5]
9 |  |  |  | > 100 µM | > 100 µM | > 100 µM | > 20 µM | O=Cc1c[nH]c2ccccc12 [Compound 6, indole-3-carbaldehyde] |  | 
10 |  |  |  | > 100 µM | > 100 µM | > 100 µM | > 20 µM | OCCc1c[nH]c2ccccc12 [Compound 7, tryptophol] |  | 
11 |  |  |  | > 100 µM | > 100 µM | > 100 µM | > 20 µM | O=C(O)C(=O)Cc1c[nH]c2ccccc12 [Compound 8, indole-3-pyruvic acid] |  | 
12 |  |  |  | > 100 µM | > 100 µM | > 100 µM | > 20 µM | Cc1c[nH]c2ccccc12 [Compound 9, skatole] |  | 
13 |  |  |  | > 100 µM | > 100 µM | > 100 µM | > 20 µM | O=C(O)c1ccc2ccccc2c1O [Compound 10, 1-hydroxy-2-naphthoic acid] |  | 
